Experimental data taken from US8647867B2, “Cell cultivation method and cell culture” (National University Corportion Okayama University, priority 2005, dated 2014).

Experiments:
porcine pancreatic islet = assay: Insulin production ability of cultured porcine pancreatic islet; format: cell-based
Method: A process of isolation of porcine pancreatic islet was carried out according to the method for isolation of human pancreatic islet (see, Lakey J R T, Kobayashi N, Shapiro A M J, Ricordi C, Okitsu T: Current human islet isolation protocol. Medical Review Co., Ltd., Osaka, Japan, 2004), and followed a method in a published literature (Yonekawa Y, Matsumono S, Okitsu T, Arata T, Iwanaga Y, Noguchi H, Nagata H, O'Neil J J, Tanaka K: Effective islet isolation method with extremely high islet yields from adult pigs. Cell Transplant. 14(10): 757-62, 2005). Those skilled in the art are capable of isolating pancreatic islet by referring to this literature.
(§1) Insulin production abilities of cultured porcine pancreatic islet were determined and compared between groups A and B. Using low glucose DMEM (glucose concentration: […]) (available from 25 GIBCO, Oakland, N.J.) supplemented with 10% FCS, nicotineamide 10 mM and penicillin G/streptomycin, cells were cultured for 24 hours until 60% confluency (low glucose). Then, the medium was changed for high glucose DMEM (glucose concentration: […]) (available from GIBCO, Oakland, N.J.) supplemented with 10% FCS, nicotineamide 10 mM and penicillin G/streptomycin, and cells were cultured for 6 hours (high glucose). After high glucose culture, the medium was exchanged for low glucose DMEM and cells were cultured for 6 hours (low glucose (after)). After each culture operation, the production amount of insulin in the culture medium (μg/l) was determined by an immunostaining method using a rabbit anti-human insulin antibody (available from DakoCytomation K. K., Kyoto, Japan).

porcine hepatocyte [1] = assay: Morphological study of cultured porcine hepatocyte by phase-contrast and electron microscope; format: cell-based
Method: Recently, it has been known that when three-dimensional culture of cells is performed on scaffold, cell functions are improved and maintained. […]

porcine hepatocyte [2] = assay: Metabolic ability of lidocaine in cultured porcine hepatocyte; format: cell-based; parameters: lidocaine metabolic rate: unit not given beside the values; details: for lidocaine metabolic rate: lidocaine 1 mg/ml, after 24 hours
human pancreatic islet = assay: Insulin production ability of cultured human pancreatic islet; format: cell-based
Method: Healthy isolated human pancreatic islets provided from Alberta University in Canada (those skilled in the art can obtain them from Canada, Alberta University, human pancreatic islet transplantation program, Dr. Jonathan R T. Lakey) were seeded in a T25 10 culture flask.
as §1, with “human” for “porcine”, “from” for “from 25”, “respective” for “each”, “operations,” for “operation,”

porcine hepatocyte [3] = assay: Viability of porcine hepatocyte (live/dead test); format: cell-based; details: culture without insert, days 1, 7 and 14 of culture
Source text: Therefore, it was clarified that it is more suitable for culture of porcine hepatocyte to use PuraMatrix of SEQ ID NO:1 Since the appended Photographs are converted into white and black two tones, dyed colors are not expressed.

porcine hepatocyte [4] = assay: Metabolic ability of diazepam in cultured porcine hepatocyte
Method: Large white male pigs (body weight: 15 to 20 kg) were used. 1.5 ml of ketalar for intramuscular injection was injected to cause sedation and then, auricular vein was acquired and 5 mg/kg of isozol and 1 mg/kg of musculax were administered intravenously to obtain muscle relaxation. After endotracheal intubation, peritoneotomy was performed under general anesthesia with sevoflurene under controlled ventilation by an artificial respirator. A liver lateral region of the pig was surgically excised (about 80 g), perfusion was performed through excised cross-section portal vein and hepatic vein. First, the excised liver was perfused with a primary perfusion solution (sodium chloride 9 g/L, potassium chloride 0.42 g/L, sodium hydrogen carbonate 2.1 g/L, glucose 0.9 g/L, HEPES 4.78 g/L, ethylenediamine tetraacetic acid (EDTA) 0.37 g/L), subsequently, perfused with a secondary perfusion solution containing no EDTA (sodium chloride 9 g/L, potassium chloride 0.42 g/L, sodium hydrogen carbonate 2.1 g/L, glucose 0.9 g/L, HEPES 4.78 g/L). Thereafter, perfusion of the liver, kept at 39° C., was done with a dispase solution (sodium chloride 9 g/L, potassium chloride 0.42 g/L, sodium hydrogen carbonate 2.1 g/L, glucose 0.9 g/L, HEPES 4.78 g/L, dispase 8.4 g/L) (available from Godo Shusei K. K., Tokyo, Japan) and finally, with a collagenase solution (sodium chloride 9 g/L, potassium chloride 0.42 g/L, sodium hydrogen carbonate 2.1 g/L, glucose 0.9 g/L, HEPES 4.78 g/L, collagenase 0.5 g/L (available from Nitta Gelatin Inc., Osaka, Japan), calcium chloride monohydrate 0.55 g/L). […]
The metabolic abilities of diazepam in cultured porcine hepatocyte were measured and compared between groups A and B. Diazepam (1 pg/ml) was added to porcine hepatocyte media on days 1, 7 and 14 of culture, and the concentration of diazepam in the media after 24 hours was measured (entrusted to SRL K. K.), and the metabolic rate was calculated.

[5] = porcine hepatocyte, culture without insert, days 1, 7 and 14
[6] = culture without insert, days 1, 7 and 14

CC(=O)N[C@@H](CCCNC(=N)N)C(=O)N[C@@H](C)C(=O)N[C@@H](CC(=O)O)C(=O)N[C@@H](C)C(=O)N[C@@H](CCCNC(=N)N)C(=O)N[C@@H](C)C(=O)N[C@@H](CC(=O)O)C(=O)N[C@@H](C)C(=O)N[C@@H](CCCNC(=N)N)C(=O)N[C@@H](C)C(=O)N[C@@H](CC(=O)O)C(=O)N[C@@H](C)C(=O)N[C@@H](CCCNC(=N)N)C(=O)N[C@@H](C)C(=O)N[C@@H](CC(=O)O)C(=O)N[C@@H](C)C(N)=O [Group A, Ac-(RADA)4-CONH2]
production amount of insulin in the culture medium (porcine pancreatic islet; porcine islets (10 seeded), day 0 of culture, low glucose (100 g/l, 24 hours)): 0.80 µg/L | production amount of insulin in the culture medium (porcine pancreatic islet; porcine islets, day 0 of culture, high glucose (450 g/l, 6 hours)): 1.62 µg/L | production amount of insulin in the culture medium (porcine pancreatic islet; porcine islets, day 0 of culture, low glucose (after), 6 hours): 1.01 µg/L | production amount of insulin in the culture medium (porcine pancreatic islet; porcine islets, day 3 of culture, high glucose (450 g/l, 6 hours)): 1.48 µg/L | production amount of insulin in the culture medium (porcine pancreatic islet; porcine islets, day 3 of culture, low glucose (100 g/l, 24 hours)): 0.80 µg/L | production amount of insulin in the culture medium (porcine pancreatic islet; porcine islets, day 3 of culture, low glucose (after), 6 hours): 0.90 µg/L | production amount of insulin in the culture medium (porcine pancreatic islet; porcine islets, day 5 of culture, high glucose (450 g/l, 6 hours)): 1.24 µg/L | production amount of insulin in the culture medium (porcine pancreatic islet; porcine islets, day 5 of culture, low glucose (100 g/l, 24 hours)): 0.69 µg/L | production amount of insulin in the culture medium (porcine pancreatic islet; porcine islets, day 5 of culture, low glucose (after), 6 hours): 0.78 µg/L | production amount of insulin in the culture medium (porcine pancreatic islet; porcine islets, day 7 of culture, high glucose (450 g/l, 6 hours)): 0.90 µg/L | production amount of insulin in the culture medium (porcine pancreatic islet; porcine islets, day 7 of culture, low glucose (100 g/l, 24 hours)): 0.49 µg/L | production amount of insulin in the culture medium (porcine pancreatic islet; porcine islets, day 7 of culture, low glucose (after), 6 hours): 0.71 µg/L | amount of insulin secreted in high glucose concentration (response to glucose concentration) (porcine pancreatic islet; porcine pancreatic islet, day 5 of culture): increased | formation of cell adhesion apparatus and bile canaliculi between hepatocytes (porcine hepatocyte [1]; culture with insert, day 3 of culture, transmission electron microscope): a cell adhesion apparatus 5 and a bile canaliculi 6 were formed between hepatocytes | formation of three-dimensional spheroid by hepatocytes (porcine hepatocyte [1]; culture without insert, phase-contrast microscope days 1, 7, 14, electron microscope day 5): formation of three-dimensional spheroid by hepatocytes was confirmed | lidocaine metabolic rate (porcine hepatocyte [2]; Table 2(a), culture without insert, day 1 of culture): 40.0 | lidocaine metabolic rate (porcine hepatocyte [2]; Table 2(a), culture without insert, day 7 of culture): 31.9 | lidocaine metabolic rate (porcine hepatocyte [2]; Table 2(a), culture without insert, day 14 of culture): 19.1 | lidocaine metabolic rate (porcine hepatocyte [2]; Table 2(c), culture with insert, day 1 of culture): 44.0 | lidocaine metabolic rate (porcine hepatocyte [2]; Table 2(c), culture with insert, day 7 of culture): 36.9 | lidocaine metabolic rate (porcine hepatocyte [2]; Table 2(c), culture with insert, day 14 of culture): 32.4 | lidocaine metabolic rate (porcine hepatocyte [2]; Table 2(c), culture with insert, day 21 of culture): 30.2 | lidocaine metabolic rate (porcine hepatocyte [2]; Table 2b, culture without insert, day 1 of culture): 40.8 | lidocaine metabolic rate (porcine hepatocyte [2]; Table 2b, culture without insert, day 7 of culture): 32.2 | lidocaine metabolic rate (porcine hepatocyte [2]; Table 2b, culture without insert, day 14 of culture): 21.0 | lidocaine metabolic rate as compared with collagen type I (monolayer) (group B), Matrigel (group C) and collagen sandwich (group D) (porcine hepatocyte [2]; porcine hepatocyte, culture with insert, days 1, 7, 14 and 21): significantly better | lidocaine metabolic rate as compared with collagen type I (monolayer) (group B) (porcine hepatocyte [2]; [5]): significantly better | lidocaine metabolic rate as compared with collagen type I (monolayer) (group B) and Matrigel (group C) (porcine hepatocyte [2]; [5]): significantly better | production amount of insulin in the culture medium (human pancreatic islet; human islets (10 seeded), day 1 of culture, low glucose (100 g/l, 24 hours)): 0.60 µg/L | production amount of insulin in the culture medium (human pancreatic islet; human islets, day 1 of culture, high glucose (450 g/l, 6 hours)): 1.89 µg/L | production amount of insulin in the culture medium (human pancreatic islet; human islets, day 1 of culture, low glucose (after), 6 hours): 1.13 µg/L | production amount of insulin in the culture medium (human pancreatic islet; human islets, day 3 of culture, high glucose (450 g/l, 6 hours)): 1.68 µg/L | production amount of insulin in the culture medium (human pancreatic islet; human islets, day 3 of culture, low glucose (100 g/l, 24 hours)): 0.58 µg/L | production amount of insulin in the culture medium (human pancreatic islet; human islets, day 3 of culture, low glucose (after), 6 hours): 1.11 µg/L | production amount of insulin in the culture medium (human pancreatic islet; human islets, day 5 of culture, high glucose (450 g/l, 6 hours)): 1.43 µg/L | production amount of insulin in the culture medium (human pancreatic islet; human islets, day 5 of culture, low glucose (100 g/l, 24 hours)): 0.51 µg/L | production amount of insulin in the culture medium (human pancreatic islet; human islets, day 5 of culture, low glucose (after), 6 hours): 1.10 µg/L | production amount of insulin in the culture medium (human pancreatic islet; human islets, day 7 of culture, high glucose (450 g/l, 6 hours)): 0.76 µg/L | production amount of insulin in the culture medium (human pancreatic islet; human islets, day 7 of culture, low glucose (100 g/l, 24 hours)): 0.41 µg/L | production amount of insulin in the culture medium (human pancreatic islet; human islets, day 7 of culture, low glucose (after), 6 hours): 0.54 µg/L | amount of insulin secreted in high glucose concentration (response to glucose concentration) (human pancreatic islet; human pancreatic islet, day 7 of culture): increased | viability of porcine hepatocytes (live cells green, dead cells red) (porcine hepatocyte [3]): most cells exhibited a green color | diazepam metabolic rate as compared with collagen type I (monolayer) (group B), Matrigel (group C) and collagen sandwich (group D) (porcine hepatocyte [4]; culture with insert, days 1, 7, 14 and 21): significantly better | diazepam metabolic rate as compared with collagen type I (monolayer) (group B) (porcine hepatocyte [4]; [6]): significantly better | diazepam metabolic rate as compared with collagen type I (monolayer) (group B) and Matrigel (group C) (porcine hepatocyte [4]; [6]): significantly better
